Data published in US10703843B2, “Compositions and methods for bonding glues, adhesives, and coatings to surfaces” (University of Virginia Patent Foundation, priority 2014, dated 2020).

Columns and labels:
[1] = Measured solubilities of ECA and PECA in solvents and of solvents in PECA; conditions: ±10%; for Solubility (wt %) ECA in: solubility of ECA in the listed solvent; for Solubility (wt %) PECA in: solubility of PECA in the listed solvent; for Solubility (wt %) in PECA: solubility of the listed solvent in PECA
[2] = from Ref. [17]; cited from earlier work
[3] = at 20° C.; from Refs [18], [19]; cited from earlier work

Molecule	Solubility (wt %) ECA in [1]	Solubility (wt %) PECA in [1]	Solubility (wt %) in PECA [1]	ET^N normalized empirical parameter of solvent polarity [2]	σ surface tension [3]
COCCOC [1,2-dimethoxyethane]	miscible	miscible	miscible		
CC(C)=O [acetone]	miscible	miscible	miscible	0.355	24.1 mN/m
C1CCCCC1 [cyclohexane]				0.006	25.2 mN/m
CCOCC [diethyl ether]	miscible	0.10 wt %		0.117	17.1 mN/m
CCOC(C)=O [ethyl acetate]				0.228	24.1 mN/m
CCCCCCC [n-heptane]	7.5 wt %	0.05 wt %	0.4 wt %	0.012	20.1 mN/m
CCCCCC [n-hexane]				0.009	18.4 mN/m
CCCCC [n-pentane]	11.4 wt %	0.11 wt %	0.8 wt %	0.009	16.1 mN/m
Cc1ccccc1 [toluene]				0.099	
xylene	miscible	0.24 wt %		0.074	29.3 mN/m
